Like-named read-outs stand apart in the source and are kept apart here. Each block holds one molecule with its values, some of them ahead of it.
Experiments:
[1] = Iron clearance performance ratio in primates versus rodents; type: in vivo, Cebus apella / rat; details: mean ICE primates / mean ICE rodents
From the text: Iron Clearance Performance Ratio in Primates versus Rodents. The performance ratio (PR), defined as the mean ICEprimates/ICErodents, is noteworthy (Table 3). […] The mean ICE for the primate group can be compared with the mean ICE of the rodent group (Table 3). […] This is not the case with the 5′-polyether (6), whose ICE is virtually identical in the two species. The largest differences in performance ratios generally unfold with the parent ligands 1, 4, and 7.

[2] = tested on: Iron-Overloaded Cebus apella Primates; experiment: Chelator-induced iron clearance in iron-overloaded Cebus apella primates; type: in vivo; details: po, 75 μmol/kg
From the text: Chelator-Induced Iron Clearance in Iron-Overloaded Cebus apella Primates. The iron-clearance data for all three sets of ligands are presented (Table 2). […] J. Med. Chem. 2003, 46, 1470-1477]>1 (16.8±7.2%) [Bergeron, R. J., Wiegand, J., McManis, J. S., McCosar, B. H., Weimar, W. R., Brittenham, G. M. and Smith, R. E. Effects of C-4 Stereochemistry and C-4′ Hydroxylation on the Iron Clearing Efficiency and Toxicity of Desferrithiocin Analogues. J. Med. Chem. 1999, 42, 2432-2440], the increase is not significant. Although (S)-4′-(HO)-DADFT-PE (3) is the least lipophilic chelator in the 1-3 series, it is just as efficient (ICE, 25.4±7.4%) [Bergeron, R. J., Wiegand, J., McManis, J. S., Vinson, J. R. T., Yao, H., Bharti, N. and Rocca, J. R. (S)-4,5-Dihydro-2-(2-hydroxy-4-hydroxyphenyl)-4-methyl-4-thiazolecarboxylic Acid Polyethers: A Solution to Nephrotoxicity.
The monkeys (3.5-4 kg) were iron overloaded with intravenous iron dextran as specified in earlier publications to provide about 500 mg of iron per kg of body weight [Bergeron, R. J., Streiff, R. R., Wiegand, J., Luchetta, G., Creary, E. A. and Peter, H. H. A Comparison of the Iron-Clearing Properties of 1,2-Dimethyl-3-hydroxypyrid-4-one, 1,2-Diethyl-3-hydroxypyrid-4-one, and Deferoxamine. Blood 1992, 79, 1882-1890]; the serum transferrin iron saturation rose to between 70 and 80%. At least 20 half-lives, 60 d [Wood, J. K., Milner, P. F. and Pathak, U. N. The Metabolism of Iron-dextran Given as a Total-dose Infusion to Iron Deficient Jamaican Subjects. Br. J. Haematol. 1968, 14, 119-129], elapsed before any of the animals were used in experiments evaluating iron-chelating agents.
Fecal and urine samples were collected at 24-h intervals and processed as described previously [Bergeron, R. J., Streiff, R. R., Creary, E. A., Daniels, R. D., Jr., King, W., Luchetta, G., Wiegand, J., Moerker, T. and Peter, H. H. A Comparative Study of the Iron-Clearing Properties of Desferrithiocin Analogues with Desferrioxamine B in a Cebus Monkey Model. Blood 1993, 81, 2166-2173; Bergeron, R. J., Streiff, R. R., Wiegand, J., Vinson, J. R. T., Luchetta, G., Evans, K. M., Peter, H. and Jenny, H.-B. A Comparative Evaluation of Iron Clearance Models. Ann. N.Y. Acad. Sci. 1990, 612, 378-393; Bergeron, R. J., Wiegand, J. and Brittenham, G. M. HBED: A Potential Alternative to Deferoxamine for Iron-Chelating Therapy. Blood 1998, 91, 1446-1452]. Briefly, the collections began 4 d prior to the administration of the test drug and continued for an additional 5 d after the drug was given. Iron concentrations were determined by flame atomic absorption spectroscopy as presented in other publications [Bergeron, R. J., Streiff, R. R., Wiegand, J., Vinson, J. R. T., Luchetta, G., Evans, K. M., Peter, H. and Jenny, H.-B. A Comparative Evaluation of Iron Clearance Models. Ann. N.Y. Acad. Sci. 1990, 612, 378-393; Bergeron, R. J., Wiegand, J., Wollenweber, M., McManis, J. S., Algee, S. E. and Ratliff-Thompson, K. Synthesis and Biological Evaluation of Naphthyldesferrithiocin Iron Chelators. J. Med. Chem. 1996, 39, 1575-1581].
(§1) In the iron-clearing experiments, the rats were given a single 300 μmol/kg dose of drugs 1-9 orally (po).
(§2) J. Med. Chem. 1999, 42, 2432-2440].

[3] = tested on: Non-Iron-Overloaded Rodents; experiment: Chelator-induced iron clearance in non-iron-overloaded, bile duct-cannulated rats; type: in vivo, rat (male Sprague-Dawley); details: po, 300 μmol/kg; for ICE of the polyether relative to that of the parent ligand: 1 vs 3, 4 vs 6, 7 vs 9
From the text: Chelator-Induced Iron Clearance in Non-Iron-Overloaded Rodents. […] J. Med. Chem. 2006, 49, 2772-2783]. Recall that iron-clearing efficiency (ICE) is defined as (net iron excretion)/(total iron-binding capacity of the chelator), expressed as a percent. The relative ICE values of compounds 1 and 2 were in keeping with their log Papp values: the more lipophilic, the larger log Papp, the more efficient the chelator. […] However, the ICE trend was in keeping with the biliary ferrokinetics (FIG. 3) and liver concentration of the chelators, for example, 3>1 (FIG. 4).
Cannulation of Bile Duct in Non-Iron-Overloaded Rats has been described previously. […]. […] The urine sample(s) was taken at 24 h intervals. Sample collection and handling are as previously described [Bergeron, R. J., Streiff, R. R., Creary, E. A., Daniels, R. D., Jr., King, W., Luchetta, G., Wiegand, J., Moerker, T. and Peter, H. H. A Comparative Study of the Iron-Clearing Properties of Desferrithiocin Analogues with Desferrioxamine B in a Cebus Monkey Model. Blood 1993, 81, 2166-2173; Bergeron, R. J., Streiff, R. R., Wiegand, J., Vinson, J. R. T., Luchetta, G., Evans, K. M., Peter, H. and Jenny, H.-B. A Comparative Evaluation of Iron Clearance Models. Ann. N.Y. Acad. Sci. 1990, 612, 378-393].
as §1, §2

[4] = Chelator tissue distribution in rodents; type: in vivo, rat (male Sprague-Dawley); details: rats, sc, 300 μmol/kg; for concentration at 0.5 h: male, Sprague-Dawley, rat, plasma
Description: Collection of Tissue Distribution Samples from Rodents: Male Sprague-Dawley rats (250-350 g) were given a single sc injection of the monosodium salts of 6 and 9 prepared as described above at a dose of 300 μmol/kg. At times 0.5, 1, 2, and 4 h after dosing (n=3 rats per time point) the animals were euthanized by exposure to CO2 gas. Blood was obtained via cardiac puncture into vacutainers containing sodium citrate. The blood was centrifuged, and the plasma was separated for analysis. The liver, heart, kidneys, and pancreas were then removed from the animals. […] J. Med. Chem. 2006, 49, 2772-2783]. In the current study, tissues from the (S)-3′-(HO)-DADFT-PE (9) and (S)-5′-(HO)-DADFT-PE (6) treated rats were prepared for HPLC analysis by homogenizing them in 0.5 N HClO4 at a ratio of 1:3 (w/v). Then, as a rinse, CH3OH at a ratio of 1:3 (w/v) was added and the mixture was stored at −20° C. for 30 min. This homogenate was centrifuged. The supernatant was diluted with mobile phase A (95% buffer [25 mM KH2PO4, pH 3.0]/5% CH3CN), vortexed, and filtered with a 0.2 μm membrane. Analytical separation was performed on a Discovery RP Amide C16 HPLC system with UV detection at 310 nm as described previously [Bergeron, R. J., Wiegand, J., Weimar, W. R., McManis, J. S., Smith, R. E. and Abboud, K. A. Iron Chelation Promoted by Desazadesferrithiocin Analogues: An Enantioselective Barrier. Chirality 2003, 15, 593-599; Bergeron, R. J., Wiegand, J., Ratliff-Thompson, K. and Weimar, W. R. The Origin of the Differences in (R)- and (S)-Desmethyldesferrithiocin: Iron-Clearing Properties. Ann. N.Y. Acad. Sci. 1998, 850, 202-216]. Mobile phase and chromatographic conditions were as follows: solvent A, 5% CH3CN/95% buffer; solvent B, 60% CH3CN/40% buffer. The concentrations were calculated from the peak area fitted to calibration curves by nonweighted least-squares linear regression with Rainin Dynamax HPLC Method Manager software (Rainin Instrument Co.).

[5] = tested on: Non-Iron-Overloaded Rodents; details: rats, po, 300 μmol/kg, historical data; cited from earlier work
[6] = earlier preclinical studies; cited from earlier work
[7] = tested on: Iron-Overloaded Cebus apella Primates; details: Cebus apella, po, 150 μmol/kg, historical data; cited from earlier work

SMILES: COCCOCCOCCOc1ccc(O)c(C2=N[C@@](C)(C(=O)O)CS2)c1 [drawing 26]
ICE Primate/ICE Rodent (performance ratio) [1]: 1.0

SMILES: COc1ccc(O)c(C2=N[C@@](C)(C(=O)O)CS2)c1 [drawing 25]
ICE Primate/ICE Rodent (performance ratio) [1]: 3.0

concentration at 0.5 h ([4]; 0.5 h): 62 ± 24 µM
kidney concentration ([4]; 0.5 h): 280±26 nmol/g wet weight
liver concentration ([4]; 0.5 h): 242±38 nmol/g wet weight
drop in plasma concentration relative to 0.5 h ([4]; 1 h): 26%
kidney concentration ([4]; 1 h): 259±35 nmol/g wet weight
liver concentration ([4]; 1 h): 318±46 nmol/g wet weight
drop in plasma concentration relative to 0.5 h ([4]; 2 h): 61%
kidney concentration ([4]; 2 h): 145±27 nmol/g wet weight
pancreas concentration ([4]; 2 h): 16 nmol/g wet weight
drop in plasma concentration relative to 0.5 h ([4]; 4 h): 79%
kidney concentration ([4]; 4 h): 90±7 nmol/g wet weight
SMILES: COCCOCCOCCOc1cccc(C2=N[C@@](C)(C(=O)O)CS2)c1O [Compound 9, (S)-4,5-dihydro-2-[2-hydroxy-3-(3,6,9-trioxadecyloxy)phenyl]-4-methyl-4-thiazolecarboxylic acid]
Iron-Clearing Efficiency (%) [2]: 24.5±7.6%
relative percentages of the iron excreted in the stool and urine [2]: 72/28
ICE of 3′-polyether relative to 4′-polyether (3), more effective [3]: ~200%
ICE of the polyether relative to that of the parent ligand [3]: 230%
Iron-Clearing Efficiency (%) ([3]; 48 h sample collection period): 10.6±4.4%
relative percentages of the iron excreted in the bile and urine ([3]; 48 h sample collection period): 95/5

SMILES: COCCOCCOCCOc1cccc(C2=N[C@@](C)(C(=O)O)CS2)c1O [drawing 29]
ICE Primate/ICE Rodent (performance ratio) [1]: 2.3

SMILES: COc1ccc(C2=N[C@@](C)(C(=O)O)CS2)c(O)c1 [Compound 2, (S)-4,5-dihydro-2-(2-hydroxy-4-methoxyphenyl)-4-methyl-4-thiazolecarboxylic acid]
Iron-Clearing Efficiency (%) [5]: 6.6±2.8%
toxicity / nephrotoxicity in words [6]: unacceptably toxic
Iron-Clearing Efficiency (%) [7]: 24.4±10.8%

SMILES: C[C@]1(C(=O)O)CSC(c2cccc(O)c2O)=N1 [drawing 27]
ICE Primate/ICE Rodent (performance ratio) [1]: 5.0

concentration at 0.5 h ([4]; 0.5 h): 324 ± 20 µM
decrease of liver concentration from 0.5 h to 1 h [4]: 36%
kidney concentration ([4]; 0.5 h): 643±92 nmol/g wet weight
liver concentration ([4]; 0.5 h): 483±85 nmol/g wet weight
drop in plasma concentration relative to 0.5 h ([4]; 1 h): 39%
kidney concentration ([4]; 1 h): 435±111 nmol/g wet weight
drop in plasma concentration relative to 0.5 h ([4]; 2 h): 54%
kidney concentration ([4]; 2 h): 321±20 nmol/g wet weight
pancreas concentration ([4]; 2 h): ≈ 30 nmol/g wet weight
drop in plasma concentration relative to 0.5 h ([4]; 4 h): 82%
kidney concentration ([4]; 4 h): 116±65 nmol/g wet weight
SMILES: COCCOCCOCCOc1ccc(O)c(C2=N[C@@](C)(C(=O)O)CS2)c1 [Compound 6, (S)-4,5-dihydro-2-[2-hydroxy-5-(3,6,9-trioxadecyloxy)phenyl]-4-methyl-4-thiazolecarboxylic acid]
Iron-Clearing Efficiency (%) [2]: 8.1±2.8%
relative percentages of the iron excreted in the stool and urine [2]: 56/44
Iron-Clearing Efficiency (%) [3]: 8.0±1.8%
ICE of the polyether relative to that of the parent ligand [3]: 800%
relative percentages of the iron excreted in the bile and urine [3]: 98/2

SMILES: COc1cccc(C2=N[C@@](C)(C(=O)O)CS2)c1O [drawing 28]
ICE Primate/ICE Rodent (performance ratio) [1]: 1.8

SMILES: C[C@]1(C(=O)O)CSC(c2cc(O)ccc2O)=N1 [drawing 24]
ICE Primate/ICE Rodent (performance ratio) [1]: 12.6
